Assay results as given in patent publication US5395947A, “Platinum(II) complex and processes for preparing the same” (Sunkyong Industries, Ltd., priority 1991, dated 1995).

Assays:
[1] = test system: murine leukemia L1210 cells; experiment: Growth inhibition test on cultured murine leukemia L1210 cells; format: cell-based; conditions: 48 hours, 37° C., Trypan blue viability
Summary of the method: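 Read-out is Trypan blue (0.17%) viability versus compound-free controls. Cells, 1×10^5, were cultured 48 h at 37° C under 5% CO2 in RPMI 1640/10% FCS containing various compound concentrations.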

murine leukemia L1210 = experiment: Antitumor activity test on murine leukemia L1210 in vivo; design: species or system male BDF1 mice; conditions: days 1, 5, 9
Summary of the method: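 Male BDF1 mice (6 weeks, 21±3 g; n=7) received 1×10^6 leukemia cells into the peritoneum on day 0, then test compound suspended or dissolved in 0.5% CMC i.p. on days 1, 5, 9. Activity expressed as T/C %, mean survival treated versus 0.5% CMC-injected controls.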

Test for nephrotoxicity = format: in vivo, male ICR mice
Experimental: 4. Test for nephrotoxicity
The compounds of the present invention were dissolved or suspended in 0.5% CMC solution(in water) and were administered intraperitoneally one time to 8-week-old male ICR mice weighing 30±3 g. Each treatment and control groups consisted of six mice.
The administration amount of the test compound was 1.5 times the optimum dose obtained in Table 2, or more. On days 1, 4 and 8 after administration, their blood was collected under ether anesthesia for measurement of blood urea nitrogen concentration (BUN value) and creatinine concentration.
A pair of kidneys were taken and, after immediate weighing, were stored in a 10% neutral buffered formalin solution. The body weight ratio shown in Table 5 is a ratio of the body weight measured on days 1, 4 and 8 from the administration of the compound to the body weight measured on the administration day.

ICR mice = experiment: Acute toxicity test; format: in vivo; design: Lethality: unit not given here; conditions: for Lethality: 10080 min
Summary of the method: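 Single i.p. administration to ICR mice (7 weeks old, both sexes, n=6/group); appearance and mortality logged over 7 days, dead animals autopsied for gross pathology.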

For `CC(C)C1OC(CN)C(CN)O1.CC1[O][Pt][O]C1=O` [Example 19, (L-lactato-O,O')[(4R,5R)-4,5-bis(aminomethyl)-2-isopropyl-1,3-dioxolane]platinum(II)], the “IC50 (concentration required for 50% inhibition of growth)” value [1] was 0.29 µg/mL, the “T/C (%)” value (murine leukemia L1210; 12.5 mg/kg i.p.) was 208% and the “T/C (%)” value (murine leukemia L1210; 25 mg/kg i.p.) was 232%. For the same compound, the “T/C (%)” value (murine leukemia L1210; 50 mg/kg i.p.) was “toxic”, the “BUN, 1st day” value (Test for nephrotoxicity; 18.8 mg/kg i.p. once) was 38.6 mg/100 ml and the “BUN, 4th day” value (Test for nephrotoxicity; 18.8 mg/kg i.p. once) was 27.9 mg/100 ml. For the same compound, the “BUN, 8th day” value (Test for nephrotoxicity; 18.8 mg/kg i.p. once) was 50.7 mg/100 ml, the “Number of dead mice for 7 days” value (ICR mice; female, 41.3 mg/kg i.p.) was 2/6 and the “Number of dead mice, 1st day” value (ICR mice; female, 41.3 mg/kg i.p.) was 0/6. For the same compound, the “Number of dead mice, 5th day” value (ICR mice; female, 41.3 mg/kg i.p.) was 1/6, the “Number of dead mice, 6th day” value (ICR mice; female, 41.3 mg/kg i.p.) was 1/5 and the Lethality (ICR mice; female, 41.3 mg/kg i.p.) was 33.3. For the same compound, the “Number of dead mice for 7 days” value (ICR mice; female, 54.9 mg/kg i.p.) was 4/6, the “Number of dead mice, 1st day” value (ICR mice; female, 54.9 mg/kg i.p.) was 0/6 and the “Number of dead mice, 3rd day” value (ICR mice; female, 54.9 mg/kg i.p.) was 1/6. The “Number of dead mice, 4th day” value (ICR mice; female, 54.9 mg/kg i.p.) was 2/5, the “Number of dead mice, 5th day” value (ICR mice; female, 54.9 mg/kg i.p.) was 1/3 and the Lethality (ICR mice; female, 54.9 mg/kg i.p.) was 66.7. For the same compound, the “Number of dead mice for 7 days” value (ICR mice; female, 71.4 mg/kg i.p.) was 5/6, the “Number of dead mice, 1st day” value (ICR mice; female, 71.4 mg/kg i.p.) was 0/6 and the “Number of dead mice, 4th day” value (ICR mice; female, 71.4 mg/kg i.p.) was 1/6. For the same compound, the “Number of dead mice, 5th day” value (ICR mice; female, 71.4 mg/kg i.p.) was 3/5, the “Number of dead mice, 6th day” value (ICR mice; female, 71.4 mg/kg i.p.) was 1/2 and the Lethality (ICR mice; female, 71.4 mg/kg i.p.) was 83.3. For the same compound, the “Number of dead mice for 7 days” value (ICR mice; female, 91.8 mg/kg i.p.) was 6/6, the “Number of dead mice, 1st day” value (ICR mice; female, 91.8 mg/kg i.p.) was 0/6 and the “Number of dead mice, 2nd day” value (ICR mice; female, 91.8 mg/kg i.p.) was 1/6. For the same compound, the “Number of dead mice, 3rd day” value (ICR mice; female, 91.8 mg/kg i.p.) was 2/5, the “Number of dead mice, 4th day” value (ICR mice; female, 91.8 mg/kg i.p.) was 2/3 and the “Number of dead mice, 5th day” value (ICR mice; female, 91.8 mg/kg i.p.) was 1/1. For the same compound, the Lethality (ICR mice; female, 91.8 mg/kg i.p.) was 100.0, the “Number of dead mice for 7 days” value (ICR mice; male, 41.3 mg/kg i.p.) was 3/6 and the “Number of dead mice, 1st day” value (ICR mice; male, 41.3 mg/kg i.p.) was 0/6. For the same compound, the “Number of dead mice, 5th day” value (ICR mice; male, 41.3 mg/kg i.p.) was 1/6, the “Number of dead mice, 6th day” value (ICR mice; male, 41.3 mg/kg i.p.) was 2/5 and the Lethality (ICR mice; male, 41.3 mg/kg i.p.) was 50.0. For the same compound, the “Number of dead mice for 7 days” value (ICR mice; male, 54.9 mg/kg i.p.) was 4/6, the “Number of dead mice, 1st day” value (ICR mice; male, 54.9 mg/kg i.p.) was 0/6 and the “Number of dead mice, 4th day” value (ICR mice; male, 54.9 mg/kg i.p.) was 1/6. For the same compound, the “Number of dead mice, 5th day” value (ICR mice; male, 54.9 mg/kg i.p.) was 2/5, the “Number of dead mice, 6th day” value (ICR mice; male, 54.9 mg/kg i.p.) was 1/3 and the Lethality (ICR mice; male, 54.9 mg/kg i.p.) was 66.7. For the same compound, the “Number of dead mice for 7 days” value (ICR mice; male, 71.4 mg/kg i.p.) was 5/6, the “Number of dead mice, 1st day” value (ICR mice; male, 71.4 mg/kg i.p.) was 0/6 and the “Number of dead mice, 4th day” value (ICR mice; male, 71.4 mg/kg i.p.) was 1/6. For the same compound, the “Number of dead mice, 5th day” value (ICR mice; male, 71.4 mg/kg i.p.) was 2/5, the “Number of dead mice, 6th day” value (ICR mice; male, 71.4 mg/kg i.p.) was 2/3 and the Lethality (ICR mice; male, 71.4 mg/kg i.p.) was 83.7. The “Number of dead mice for 7 days” value (ICR mice; male, 91.8 mg/kg i.p.) was 6/6, the “Number of dead mice, 1st day” value (ICR mice; male, 91.8 mg/kg i.p.) was 0/6 and the “Number of dead mice, 2nd day” value (ICR mice; male, 91.8 mg/kg i.p.) was 1/6. For the same compound, the “Number of dead mice, 3rd day” value (ICR mice; male, 91.8 mg/kg i.p.) was 4/5, the “Number of dead mice, 5th day” value (ICR mice; male, 91.8 mg/kg i.p.) was 1/1 and the Lethality (ICR mice; male, 91.8 mg/kg i.p.) was 100.0.
With `CCC1(CC)OC2C[NH2+][Pt-2]3([NH2+]CC2O1)[O]C(=O)CC(=O)[O]3` [Example 37, cis-malonato[(4R,5R)-4,5-bis(aminomethyl)-2,2-diethyl-1,3-dioxolane]platinum(II)] the “IC50 (concentration required for 50% inhibition of growth)” value [1] was 0.42 µg/mL, the “T/C (%)” value (murine leukemia L1210; 12.5 mg/kg i.p.) was 130% and the “T/C (%)” value (murine leukemia L1210; 25 mg/kg i.p.) was 180%. For the same compound, the “T/C (%)” value (murine leukemia L1210; 50 mg/kg i.p.) was 231%, the “BUN, 1st day” value (Test for nephrotoxicity; 75.0 mg/kg i.p. once) was 27.5 mg/100 ml and the “BUN, 4th day” value (Test for nephrotoxicity; 75.0 mg/kg i.p. once) was 26.4 mg/100 ml. The “BUN, 8th day” value (Test for nephrotoxicity; 75.0 mg/kg i.p. once) was 28.4 mg/100 ml.
